Here are results for 23 compounds from ChEMBL document CHEMBL2331100, “Inhibition pattern of sulfamide-related compounds in binding to carbonic anhydrase isoforms I, II, VII, XII and XIV” (Bioorg Med Chem, 2013).

One assay has as its target Carbonic anhydrase 12 (Homo sapiens, UniProt O43570). The assay can be described thus: Inhibition of human carbonic anhydrase 12 preincubated for 15 mins by CO2 hydration stopped-flow assay.
The next assay concerns the target Carbonic anhydrase 14 (Homo sapiens, UniProt Q9ULX7). The assay can be described thus: Inhibition of human carbonic anhydrase 14 preincubated for 15 mins by CO2 hydration stopped-flow assay.
The target in a further assay is Carbonic anhydrase 1 (Homo sapiens, UniProt P00915). The assay can be described thus: Inhibition of human carbonic anhydrase 1 preincubated for 15 mins by CO2 hydration stopped-flow assay.
The next assay concerns the target Carbonic anhydrase 2 (Homo sapiens, UniProt P00918). The assay can be described thus: Inhibition of human carbonic anhydrase 2 preincubated for 15 mins by CO2 hydration stopped-flow assay.
The target of another assay is Carbonic anhydrase 7 (Homo sapiens, UniProt P43166). Nature of the assay: Inhibition of human carbonic anhydrase 7 preincubated for 15 mins by CO2 hydration stopped-flow assay.
Chain of Carbonic anhydrase 7 (P43166 whole entry): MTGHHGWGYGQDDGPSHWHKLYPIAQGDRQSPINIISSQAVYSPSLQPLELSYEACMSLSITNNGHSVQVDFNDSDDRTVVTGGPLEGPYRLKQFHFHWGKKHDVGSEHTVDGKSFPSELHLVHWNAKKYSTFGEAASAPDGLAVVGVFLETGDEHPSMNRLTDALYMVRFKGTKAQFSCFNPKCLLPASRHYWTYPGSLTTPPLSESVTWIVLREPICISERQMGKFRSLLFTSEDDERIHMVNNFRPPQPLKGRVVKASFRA

Chain of Carbonic anhydrase 14 (Q9ULX7 whole entry): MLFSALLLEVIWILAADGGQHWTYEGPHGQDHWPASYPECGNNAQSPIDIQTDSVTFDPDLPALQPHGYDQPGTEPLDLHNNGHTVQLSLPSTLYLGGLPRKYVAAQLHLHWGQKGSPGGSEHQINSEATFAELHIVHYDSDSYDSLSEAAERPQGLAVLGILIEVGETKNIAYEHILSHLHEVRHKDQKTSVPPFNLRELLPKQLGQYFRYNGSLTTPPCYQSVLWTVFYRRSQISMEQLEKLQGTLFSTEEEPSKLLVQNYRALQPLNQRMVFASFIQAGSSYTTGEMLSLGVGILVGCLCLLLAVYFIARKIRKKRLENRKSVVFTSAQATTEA
Chain of Carbonic anhydrase 1 (P00915 whole entry): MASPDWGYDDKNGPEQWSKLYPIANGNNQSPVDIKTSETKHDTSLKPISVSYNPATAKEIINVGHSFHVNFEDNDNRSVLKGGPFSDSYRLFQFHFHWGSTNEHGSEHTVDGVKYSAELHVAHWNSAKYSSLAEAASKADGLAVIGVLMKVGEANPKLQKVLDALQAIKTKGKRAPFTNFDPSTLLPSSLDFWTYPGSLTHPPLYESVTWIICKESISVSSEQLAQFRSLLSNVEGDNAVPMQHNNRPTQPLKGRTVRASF
Chain of Carbonic anhydrase 12 (O43570 whole entry): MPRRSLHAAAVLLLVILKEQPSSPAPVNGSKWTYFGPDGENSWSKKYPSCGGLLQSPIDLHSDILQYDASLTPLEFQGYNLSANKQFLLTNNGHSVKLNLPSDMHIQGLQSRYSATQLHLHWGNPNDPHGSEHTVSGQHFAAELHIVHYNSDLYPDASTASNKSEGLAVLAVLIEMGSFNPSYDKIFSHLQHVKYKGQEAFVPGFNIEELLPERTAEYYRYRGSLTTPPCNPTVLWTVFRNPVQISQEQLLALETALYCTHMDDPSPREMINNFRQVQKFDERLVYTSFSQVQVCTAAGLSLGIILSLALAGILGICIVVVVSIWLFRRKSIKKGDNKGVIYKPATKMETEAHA

Turning to `O=S(=O)(NCCc1ccccc1)NCCc1ccccc1`, the Ki on Carbonic anhydrase 12, at Carbonic anhydrase 14, at Carbonic anhydrase 1, at Carbonic anhydrase 2 and on Carbonic anhydrase 7 was above 200 µM in each case.

`NS(=O)(=O)NCc1ccccc1`: the Ki (in general, a dissociation constant, usually derived from enzyme kinetics or from competition with a known ligand) on Carbonic anhydrase 12 was 0.94 µM; at Carbonic anhydrase 14 it was 0.84 µM; at Carbonic anhydrase 1, 0.13 µM; on Carbonic anhydrase 2, 0.12 µM; at Carbonic anhydrase 7 it was 0.3 µM.

Regarding `CCCCNS(=O)(=O)NCCC(=O)OC`, the Ki at Carbonic anhydrase 12 was 61.2 µM; on Carbonic anhydrase 14, 8.37 µM; on Carbonic anhydrase 1, above 200 µM; on Carbonic anhydrase 2, above 200 µM; on Carbonic anhydrase 7, above 200 µM.

For the compound `O=S(=O)(NC1CC1)NC1CC1`, the Ki on Carbonic anhydrase 12 was 0.77 µM; on Carbonic anhydrase 14, 8.79 µM; on Carbonic anhydrase 1 it was above 200 µM; at Carbonic anhydrase 2 it was above 200 µM; at Carbonic anhydrase 7, 0.16 µM.

With `CCCNS(=O)(=O)NCCC`, the Ki was above 200 µM at Carbonic anhydrase 12; above 200 µM on Carbonic anhydrase 14; 4.69 µM on Carbonic anhydrase 1; 124 µM at Carbonic anhydrase 2; above 200 µM on Carbonic anhydrase 7.

With `CCCCN(CCCC)S(=O)(=O)N(CCCC)CCCC`, the Ki on Carbonic anhydrase 12, on Carbonic anhydrase 14, at Carbonic anhydrase 1, on Carbonic anhydrase 2 and on Carbonic anhydrase 7 was above 200 µM throughout.

`CC(C)(C)OC(=O)NS(=O)(=O)NCc1ccccc1`: the Ki was 0.89 µM at Carbonic anhydrase 12; 40.4 µM on Carbonic anhydrase 14; 8.84 µM on Carbonic anhydrase 1; 161 µM at Carbonic anhydrase 2; 0.17 µM on Carbonic anhydrase 7.

Take `CCCN(CCC)S(N)(=O)=O`: the Ki was 3.53 µM on Carbonic anhydrase 12; 7.1 µM on Carbonic anhydrase 14; 24.9 µM on Carbonic anhydrase 1; 60.3 µM on Carbonic anhydrase 2; above 200 µM on Carbonic anhydrase 7.

Regarding `CCCC(CCC)COS(N)(=O)=O`, the Ki on Carbonic anhydrase 12 was 0.89 µM; at Carbonic anhydrase 1 it was 2.98 µM; on Carbonic anhydrase 2 it was 1.92 µM; on Carbonic anhydrase 7, 4.3 µM.

In the case of `COC(=O)[C@H](C)NS(=O)(=O)NC(=O)OC(C)(C)C`, the inhibition constant Ki is 54.5 µM on Carbonic anhydrase 12; 5.38 µM on Carbonic anhydrase 14; above 200 µM at Carbonic anhydrase 1; above 200 µM on Carbonic anhydrase 2; above 200 µM at Carbonic anhydrase 7.

As for `CCCN(CCC)S(=O)(=O)NC(=O)OC(C)(C)C`, the Ki at Carbonic anhydrase 12 is 0.91 µM; at Carbonic anhydrase 1, 6.88 µM; on Carbonic anhydrase 2 it was above 200 µM; on Carbonic anhydrase 7 it was 0.32 µM.

Consider `O=S(=O)(NC1CCCCC1)NC1CCCCC1`, for which the Ki on Carbonic anhydrase 12 worked out at 0.7 µM; on Carbonic anhydrase 14 it was 9.94 µM; at Carbonic anhydrase 1, 6.64 µM; on Carbonic anhydrase 2 it was 100 µM; on Carbonic anhydrase 7, 0.32 µM.

Turning to `O=S(=O)(N1CCOCC1)N1CCOCC1`, the Ki was 9.1 µM on Carbonic anhydrase 12; 48.8 µM on Carbonic anhydrase 14; above 200 µM at Carbonic anhydrase 1; 135 µM at Carbonic anhydrase 2; 0.47 µM on Carbonic anhydrase 7.

As to `CCCN(CCC)S(=O)(=O)N(CCC)CCC`, the Ki on Carbonic anhydrase 12 is above 200 µM; at Carbonic anhydrase 1, 9.35 µM; at Carbonic anhydrase 2 it was above 200 µM; on Carbonic anhydrase 7, above 200 µM.

In the case of `COC(=O)CNS(=O)(=O)NC(=O)OC(C)(C)C`, the Ki is 56.3 µM on Carbonic anhydrase 12; 5.92 µM at Carbonic anhydrase 14; above 200 µM at Carbonic anhydrase 1; 55.7 µM at Carbonic anhydrase 2; above 200 µM on Carbonic anhydrase 7.

In the case of `COC(=O)CCNS(=O)(=O)NCCC(=O)OC`, the Ki on Carbonic anhydrase 12 was 70.8 µM; on Carbonic anhydrase 1, above 200 µM; at Carbonic anhydrase 2, above 200 µM; at Carbonic anhydrase 7 it was above 200 µM.

Take `COC(=O)CCNS(=O)(=O)Oc1ccccc1O`: the Ki was 65 µM at Carbonic anhydrase 12; 8.53 µM on Carbonic anhydrase 14; 88.7 µM at Carbonic anhydrase 1; above 200 µM on Carbonic anhydrase 2; 68.7 µM on Carbonic anhydrase 7.

Take `COC(=O)[C@@H](NS(=O)(=O)N[C@H](C(=O)OC)C(C)C)C(C)C`: the Ki at Carbonic anhydrase 12 was 73 µM; at Carbonic anhydrase 1, above 200 µM; at Carbonic anhydrase 2 it was above 200 µM; at Carbonic anhydrase 7 it was above 200 µM.

Take `COC(=O)[C@H](C)NS(=O)(=O)N[C@@H](C)C(=O)OC`: the inhibitory constant (Ki) at Carbonic anhydrase 12 is above 200 µM; at Carbonic anhydrase 14 it was 7.66 µM; at Carbonic anhydrase 1, above 200 µM; on Carbonic anhydrase 2 it was above 200 µM; at Carbonic anhydrase 7, above 200 µM.

For the compound `CCCC(CCC)CN(C(=O)OC(C)(C)C)S(=O)(=O)NCCC(=O)OC`, the Ki on Carbonic anhydrase 12 is 65.4 µM; at Carbonic anhydrase 14 it was 8.09 µM; at Carbonic anhydrase 1 it was 62.2 µM; at Carbonic anhydrase 2, 41.1 µM; at Carbonic anhydrase 7, above 200 µM.

With `O=S(=O)(NCc1ccccc1)NCc1ccccc1` [BENZYL(BENZYLSULFAMOYL)AMINE], the Ki at Carbonic anhydrase 12 was 81.5 µM; at Carbonic anhydrase 1, above 200 µM; on Carbonic anhydrase 2, 0.65 µM; at Carbonic anhydrase 7, 0.38 µM.

`CCCCNS(=O)(=O)NCCCC` [BUTYL(BUTYLSULFAMOYL)AMINE]: the Ki amounted to 0.69 µM on Carbonic anhydrase 12; 9.79 µM at Carbonic anhydrase 14; 6.64 µM at Carbonic anhydrase 1; 66.3 µM at Carbonic anhydrase 2; 0.41 µM at Carbonic anhydrase 7.

Regarding `CCCCCCOS(N)(=O)=O` [HEXYL SULFAMATE], the Ki turned out to be 0.73 µM at Carbonic anhydrase 12; 0.82 µM on Carbonic anhydrase 14; 3.66 µM at Carbonic anhydrase 1; 2.82 µM at Carbonic anhydrase 2; 0.7 µM at Carbonic anhydrase 7.
